Test results as given in US5985922A, “Amino acid derivatives and active oxygen-resisting agent” (Ajinomoto Co., Inc., priority 1997, dated 1999).

Tests used:
lipid peroxidation = test: Test for an Active Oxygen Resistance (inhibition of lipid peroxidation in mouse brain homogenate); format: biochemical; settings: whole brain homogenate, C57 black mouse, 20-mM phosphate buffer; 37° C., 30 minutes
Procedure: The test was conducted according to the method described in Method in Enzymol., vol. 52, p. […] The outline of the test method was that a homogenized 20-mM phosphate buffer of the whole brain of a C57 black mouse was prepared, a test substance was added thereto, and an absorbance of the mixture was measured.
Percent peroxidation inhibition (%)--
A1 : Absorbance in the addition of the test compound
A2 : Absorbance before the addition of the test compound
A3 : Absorbance when the test compound is not added, nor is the heating at 37° C. for 30 minutes conducted.

[1] = Test for a Solubility (oil solvents, 1% by weight); format: physicochemical
Procedure: The solubility in the solvent shown in Table 2 when the concentration was 1% by weight was evaluated.

SMILES | Percent inhibition of lipid peroxidation (lipid peroxidation) [%] | Solubility in liquid paraffin [1] | Solubility in olive oil [1]
O=C(O)CC(O)(CC(=O)O)C(=O)O [Citric acid, reference compound] | -15 |  | 
C[C@H](NCc1ccccc1O)C(=O)O [N-(2-hydroxybenzyl)-L-alanine, reference compound] | 6 | insoluble | insoluble
O=C(O)CNCc1ccccc1O [N-(2-hydroxybenzyl)-L-glycine, reference compound] |  | insoluble | insoluble
O=C(O)[C@H](Cc1ccccc1)NCc1ccccc1O [N-(2-hydroxybenzyl)-L-phenylalanine, reference compound] |  | insoluble | insoluble
CCCCCCCCCCCCOC(=O)[C@H](C)NCc1ccccc1O [Synthesis Example 1, N-(2-hydroxybenzyl)-L-alanine lauryl ester] | 39 | soluble | soluble
CCCCCCCCCCCCCCCCCCOC(=O)[C@H](C)NCc1ccccc1O [Synthesis Example 2, N-(2-hydroxybenzyl)-L-alanine stearyl ester] | 16 | soluble | soluble
CCCCCCCCCCCCOC(=O)CNCc1ccccc1O [Synthesis Example 3, N-(2-hydroxybenzyl)glycine lauryl ester] |  | soluble | soluble
CCCCCCCCCCCCOC(=O)[C@H](Cc1ccccc1)NCc1ccccc1O [Synthesis Example 4, N-(2-hydroxybenzyl)-L-phenylalanine lauryl ester] |  | soluble | soluble
CCCCCCCCCCCCNC(=O)[C@H](C)NCc1ccccc1O [Synthesis Example 5, N-(2-hydroxybenzyl)-L-alanine laurylamide] | 80 | gelling | soluble
CCCCCCCCCCCCCCCCCCNC(=O)[C@H](C)NCc1ccccc1O [Synthesis Example 6, N-(2-hydroxybenzyl)-L-alanine stearylamide] | 17 | gelling | soluble
CCCCCCCCCCCCNC(=O)CNCc1ccccc1O [Synthesis Example 7, N-(2-hydroxybenzyl)glycine laurylamide] |  | gelling | soluble
CCCCCCCCCCCCNC(=O)[C@H](Cc1ccccc1)NCc1ccccc1O [Synthesis Example 8, N-(2-hydroxybenzyl)phenylalanine laurylamide] |  | gelling | soluble
O=C1O[C@H]([C@@H](O)CO)C(O)=C1O [Vitamin C, reference compound] | -23 |  | 
